According to PubChem BioAssay (NCI):
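In this assay, cells in 96-well plates receive the compound at five concentrations for 48 hours. Endpoints are linearly interpolated between the surrounding concentrations. TGI: total growth inhibition.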

Experiments:
Assay in all cases: DTP human tumour cell line panel, 48 h
[1] = test system: 786-0 renal
[2] = test system: COLO 205 colon
[3] = test system: EKVX NSCLC
[4] = test system: HCT-116 colon
[5] = test system: HCT-15 colon
[6] = test system: LOX IMVI melanoma
[7] = test system: MDA-MB-435
[8] = test system: NCI-H522 lung
[9] = test system: OVCAR-5 ovarian
[10] = test system: SK-MEL-2 melanoma
[11] = test system: SK-MEL-5 melanoma
[12] = test system: SNB-75 CNS
[13] = test system: SW-620 colon
[14] = test system: UACC-257 melanoma
[15] = test system: CCRF-CEM leukemia
[16] = test system: HT29 colon
[17] = test system: M14 melanoma
[18] = test system: MALME-3M melanoma
[19] = test system: NCI-H23 lung
[20] = test system: SF-268 CNS

Structure (SMILES) | TGI [1] [µM] | TGI [2] [µM] | TGI [3] [µM] | TGI [4] [µM] | TGI [5] [µM] | TGI [6] [µM] | TGI [7] [µM] | TGI [8] [µM] | TGI [9] [µM] | TGI [10] [µM] | TGI [11] [µM] | TGI [12] [µM] | TGI [13] [µM] | TGI [14] [µM] | TGI [15] [µM] | TGI [16] [µM] | TGI [17] [µM] | TGI [18] [µM] | TGI [19] [µM] | TGI [20] [µM]
COC(=O)/C(C#N)=C(\N)c1c(C)c2ccccc2oc1=N | > 100 | > 100 | > 100 | > 100 | > 100 | > 100 | > 100 | > 100 | > 100 | > 100 | > 100 | > 100 | > 100 | > 100 |  |  |  |  |  | 
CCOC(=O)C1(Br)S(=O)(=O)OCCOS1(=O)=O | > 100 | > 100 | > 100 | > 100 | > 100 | > 100 |  | > 100 | > 100 | > 100 | > 100 | > 100 | > 100 | > 100 | > 100 | > 100 | > 100 | > 100 | > 100 | > 100
COC(=O)C1C=CCON2CCc3c(n(S(=O)(=O)c4ccccc4)c4ccccc34)C12 (stereo unspecified) | > 100 | > 68.9 | > 84.8 | > 80.7 | > 72.9 | > 60.9 |  | > 62.5 | > 100 | > 100 | > 58.4 | > 100 | > 34.3 | > 90.3 | > 71.1 | > 100 | > 100 | > 100 | > 100 | > 100
CN(C)c1ccc(/C=C/c2cc(-c3ccccc3)[n+](C)n2-c2ccccc2)cc1 | 23 | 0.42 | 10.8 | 14.1 | 14.5 | 14.2 | 2.98 | 0.318 | 30.8 | 0.953 | 0.522 | 2.37 | > 35.1 | 26.8 |  | > 100 | > 34.7 |  | 0.92 | 4.77
CC1(C)OC(=O)C(Cc2ccccc2)(Cc2ccccc2)C(=O)O1 | > 100 | > 100 | > 100 | > 100 | > 100 | > 100 |  | > 100 | > 100 | > 100 | > 100 | > 100 | > 100 | > 100 | > 100 | > 100 | > 100 | > 100 | > 100 | > 100
NC(=O)C(=CNC(=S)Nc1cccc(C(F)(F)F)c1)C(N)=O | > 100 | > 100 |  | > 100 |  | > 100 | > 100 |  | > 100 | > 100 | > 100 | > 100 | > 100 | > 100 | > 100 | > 100 | > 100 |  | > 100 | > 100
COC(=O)C(/C(=N\NC(N)=S)C(=O)Nc1ccccc1[N+](=O)[O-])c1cnc2ccccc2n1 (stereo unspecified) | > 100 | > 100 | > 100 | > 100 | > 100 | > 100 |  | > 100 | > 100 | > 100 | > 100 | > 100 | > 100 | > 100 | > 100 | > 100 | > 100 | > 100 | > 100 | > 100
COc1ccc2nc(NC(=O)C(=O)NNC(=O)c3ccncc3)sc2c1 | > 100 | > 100 | > 100 | > 100 | > 100 | > 100 |  | > 100 |  |  | > 100 | > 100 | > 100 | > 100 | > 100 | > 100 | > 100 | > 100 | > 100 | > 100
O=c1cc(-c2ccccc2)[nH]c2cc(Cl)ccc12 | 12.1 | 2.82 | > 100 | > 100 | 15.8 | 21.7 |  | 0.358 | > 100 | > 100 | 19.6 | 6.07 | 16.9 | 83.2 | 11.4 | > 100 | > 100 | > 100 | 4.35 | > 100
CC1=CCC2CC1NC(=O)CCOCCC(=O)NC2(C)C (stereo unspecified) | > 100 | > 100 |  | > 100 | > 100 | > 100 | > 100 | > 100 | > 100 | > 100 | > 100 |  | > 100 | > 100 | > 100 | > 100 | > 100 |  | > 100 | > 100
COC(=O)C1(C)NCCc2c1[nH]c1ccccc21 (stereo unspecified) | > 100 | > 100 | > 100 | > 100 | > 100 |  |  | > 100 | > 100 | > 100 | > 100 | > 100 | > 100 |  | > 100 | > 100 | > 100 | > 100 | > 100 | > 100
O=C1/C(=C/c2ccc(Cl)cc2)CSC/C1=C\c1ccc(Cl)cc1 | 9.73 | 7.26 | 41.7 | 3.69 | > 100 | 5.3 |  | 15.2 | 5.57 | 37.8 | 10.6 |  | 13.4 | 5.08 | 63.9 | 4.81 | 3.92 | 36.9 | 11.8 | 22
COc1cc(C2c3c(ccc4ccccc34)C(=O)C3CCC(=O)N32)cc(OC)c1O (stereo unspecified) | > 25 | > 25 | > 25 | > 25 | > 25 |  | > 25 |  | > 25 | > 25 |  | > 25 | > 25 | > 25 | > 25 | > 25 | > 25 |  | > 25 | 
COC1/C=C/C(C)C(C(C)C(OC)C(C)CCC(=O)C(C)C(CC(=O)O)OC)OC(=O)/C=C/C=C(\C)CC(OC)CC2=CC(=O)O[C@H](C2)C(C)C(OC)CC(OC)/C=C/C(C)C(OC)C1 (stereo partly specified) | > 4.35 | > 4.35 | > 4.35 |  | > 4.35 |  | > 4.35 | 1.82 | > 4.35 | > 4.35 | > 4.35 | 0.0426 | > 4.35 | > 4.35 | > 4.35 | > 4.35 | > 4.35 |  | > 4.35 | 0.207
CN(C(=O)c1ccco1)C(=S)N1CCN(c2ccccn2)CC1 | > 100 | > 100 |  | > 100 | > 100 | > 100 |  | > 100 | > 100 | > 100 | > 100 | > 100 | > 100 | > 100 | > 100 | > 100 | > 100 | > 100 | > 100 | > 100
COc1cccc(NC(=O)C(=O)C2C=CCS2(=O)=O)c1 (stereo unspecified) | > 100 | > 100 | > 100 | > 100 | > 100 | > 100 |  | > 100 | > 100 | > 100 | > 100 | > 100 | > 100 | > 100 | > 100 | > 100 | > 100 | > 100 | > 100 | > 100
COc1ccc(/C(=N\Nc2ccccn2)c2ccccn2)cc1 | 24.5 | 12.1 | 13.6 | 17.4 | 12.5 |  | 22.3 | 14.8 | 98.9 | 30.2 | 11.7 | 8.01 | 30.4 | 17.4 | > 100 | 14 | 3.76 |  | 9.55 | 13.1
CCOC(=O)c1cccnc1C(OC(C)=O)OC(C)=O | > 100 | > 100 | > 100 | > 100 | > 100 | > 100 |  | > 100 | > 100 | > 100 | > 100 | > 100 | > 100 | > 100 | > 100 | > 100 | > 100 | > 100 | > 100 | > 100
CCCN(CCC)C1=Nc2ccccc2-n2cnnc2C1 | > 100 | > 100 | > 100 | > 100 | > 100 | > 100 |  | > 100 | > 100 | > 100 | > 100 |  | > 100 |  | > 100 | > 100 | > 100 | > 100 | > 100 | > 100
C=C1Cc2cc(OC)c(OC)c(OC)c2-c2ccc(SC)c(=O)cc21 | 1.8 | < 0.0318 | 18.8 |  | 1.17 | 0.343 |  | < 0.01 | 12.6 | < 0.01 | 13.3 | 15.1 | 4 | 7.62 | 6.85 | < 0.01 |  | 2.57 | 2.11 | 1.42
O=C1c2ccccc2C(=O)c2c(NCCCN3CCOCC3)ccc(NCCCN3CCOCC3)c21 | 16.7 |  | 46.6 | 10.4 | > 100 | 3.61 |  | 2.35 | 38.5 | 25.5 | 6.79 | 10.7 | 28.1 | 9.91 | > 100 | 12.7 | 10.1 | 27.7 | 17.6 | 20.9
CCOC(=O)CNc1nnnn1C1OC(CO)C(O)C1O (stereo unspecified) | > 100 | > 100 | > 100 | > 100 | > 100 | > 100 |  | > 100 | > 100 | > 100 | > 100 | > 100 | > 100 | > 100 | > 100 | > 100 | > 100 | > 100 |  | > 100
COc1ccc(-c2cc(=O)c3c(O)cc(O)cc3o2)c(OC)c1OC | > 100 | > 100 | > 100 |  |  | > 100 |  | > 100 | > 100 | > 100 |  | > 100 | > 100 | > 100 | > 100 | > 100 | > 100 | > 100 | > 100 | > 100
O=C1C=CC2(C=C1)C[C@H](NC(=O)OCc1ccccc1)C(=O)O2 | 27.6 | 18.3 | 23.7 | 40.3 | 27 | 31.8 |  | 8.53 | 38.2 | 40 | 47.9 | 61.4 | 18.2 | 33.2 | 10 | 31.9 | 32.6 | 26.6 | 32.5 | 32.3
COc1c2c(cc3c1C(=O)Cc1ccc4c(c1CN(C)CC3)OCO4)OCO2 | > 100 | > 100 | > 100 | > 100 | > 100 | > 100 |  | > 100 | > 100 | > 100 | > 100 | > 100 | > 100 | > 100 | > 100 | > 100 | > 100 | > 100 | > 100 | > 100
O=c1c2c(c1=O)-c1ccccc1CN2 | > 100 | > 100 | > 100 | > 100 | > 100 | > 100 |  | > 100 | > 100 | > 100 | > 100 | > 100 | > 100 | > 100 | > 100 | > 100 | > 100 | > 100 | > 100 | > 100
